From patent US8865748B2, “Compounds and compositions for stabilizing hypoxia inducible factor-2 alpha as a method for treating cancer” (Akebia Therapeutics Inc., priority 2011, dated 2014)

Test system: phosphoglycerate kinase (PGK) mRNA
Test: Phosphoglycerate kinase (PGK) mRNA expression in wild type murine embryonic fibroblasts (quantitative PCR)
Format: cell-based
Conditions: hypoxic conditions (1% O2); 1, 10 and 100 μM; vs. hypoxia control; FIG. 2A
Procedure: Total RNA was isolated from tissues and cells by using TRIzol™ Reagent (Invitrogen) and the RNeasy kit (Qiagen), respectively. 1 μg RNA was used for reverse transcription using SuperScript II First-Strand Synthersis System (Invitrogen). cDNA's were amplified in a SYR Green or TaqMan Universal Master Mix (Applied Biosystems). Quantitative PCR (qPCR) was performed on ABI Prism 7700 sequence detection system. PCR conditions are: 10 min at 95° C., 40 cycles of 15 seconds at 95° C. and 1 minute at 60° C. The relative amount of mRNA was calculated after normalization to β-actin.
Cells were cultured in DMEM (#11965-092, Invitrogen) supplemented with 10% fetal bovine serum (Invitrogen), 100 U/mL penicillin and […] streptomycin. For glucose deprivation, DMEM without glucose (#11966-025, Invitrogen) was used.
Mouse embryonic fibroblasts (MEFs) were isolated from E12.5 embryos and immortalized by stable transfection with SV40 large T antigen.

## O=C(O)CNC(=O)c1ncc(-c2cccc(F)c2)cc1O [disclosed HIF-2α stabilizer, {[5-(3-Fluorophenyl)-3-hydroxypyridine-2-carbonyl]amino}acetic acid]
  PGK mRNA (relative amount): dramatic reduction
